From patent US5863948A, “Increasing aqueous humor outflow” (priority 1994, dated 1999)
Counter-ions that a name gives are not always drawn. Like-named read-outs stand apart in the source and are kept apart here.

Key:
eye [1] = experiment: Ocular changes and intraocular pressure after perfusion in monkeys; type: in vivo, cynomologous monkeys
Description: (§1) Ethacrynic acid (sodium salt) was used to increase aqueous humor outflow in cynomologous monkeys, as described below. Ethacrynic acid can be purchased from Merck, Sharp, and Dome, and is described in U.S. Pat. No. 3,255,241, hereby incorporated by reference. Ethacrynic acid has the chemical formula [2,3-dichloro-4-(2-methylene-1-oxobutyl) phenoxy] acetic acid. Any suitable analog described in U.S. Pat. No. 3,255,241 or its ester or amide derivative can also be used as described herein; for example, the following compounds may be used and are available from Allergan, Inc. (Irvine, Calif.), as indicated by the code number below the structure. [drawing 4]
(§2) Each animal was randomly assigned one eye for the experimental and the other for its control perfusion. The animals were fasted the night before the experiment. They were anesthetized intramuscularly with Methohexital Sodium 15 mg/kg and Pentobarbital Sodium 35 mg/kg. Supplemental anesthesia as required was carried out with Pentobarbital 10 mg/kg/hour. Needles were placed through the cornea into the anterior chamber and a two-step constant pressure perfusion method was performed in order to determine aqueous humor outflow facility. The basic medium for perfusion was Dulbecco's phosphate buffered saline with added 5.5 mM glucose. A 10 microliter bolus of the experimental or control solution (that would produce the desired final concentration in the anterior chamber) was injected through a T shaped connector piece in the infusion line.
(§3) Each vial of ethacrynic acid contained ethacrynate sodium powder equivalent to 50 mg of ethacrynic acid. […] The powder was diluted with the above basic medium (Dulbecco's with added glucose) to yield the desired concentration. The solution was mixed at room temperature until dissolved, and the pH was determined (always 7.2) before use; the solution was filtered with a 0.2 micron filter (Nuclepore); this produced a solution which was stable for 24 hours.
(§4) During perfusion experiments, a 10 microliter bolus injection was made using a Hamilton syringe. Since the monkey anterior chamber is approximately 200 microliters, 10 microliters of 10 mM ethacrynic acid was infused to achieve a final concentration of 0.5 mM ethacrynic acid.
Experiments were carried out using final ethacrynic acid concentrations in the aqueous humor of 0.1 mM to 0.5 mM. There were at least three animals and separate experiments carried out for each of the concentrations 0.1 MM, 0.25 mM, and 0.5 mM.

eye [2] = experiment: Topical instillation, ocular side effects / irritation in rabbits; type: in vivo, Dutch-belted rabbits
Description: (§5) For rabbit experiments Dutch-belted rabbits of either sex weighing 1.5 to 2 kg were used for topical studies. Each animal was randomly assigned one eye for the experimental and the other for its control solution. Intraocular pressure was measured using a Digilab Pneumotonometer. Any animals showing asymmetry of intraocular pressure greater than 2 mm were excluded form the study.
(§6) The protocol was as follows. Baseline intraocular pressure was taken in each eye using 0.5% proparacaine hydrochloride for topical anesthesia. […] In a half hour this was repeated. Two hours later intraocular pressure was measured in each eye. In some animals intraocular pressure was also measured five hours later and all animals had measurement of intraocular pressure the following day.
(§7) Ethacrynic acid powder was dissolved in 3% methylcellulose to yield the desired concentration. […] The solution was refrigerated over night to yield a transparent, viscous fluid. The pH of the solution was determined by mixing one part of the control or experimental solution with five parts of distilled water. […] The 3% methylcellulose solution was refrigerated when not in use.
(§8) Experiments similar to those described above have also been performed using two esters of ethacrynic acid, RCOOCH2 CH2 N(CH2 CH3)2 (hereinafter "ester A") and RCOOCH2 CH2 CH2 N(CH2 CH3)2 (hereinafter "ester B"), where R is [2,3-dichloro-4-(2-methylene-1-oxobutyl)phenoxy]acetate.
(§9) In all these topical experiments 2 drops of the agent were given 5 minutes apart and control eyes were fully sham manipulated. […] However, not all the animals were slit lamped.

Solution stability = type: physicochemical
Description: as §3
Ethacrynic acid powder was dissolved in 3% methylcellulose to yield the desired concentration. The solution was mixed at room temperature for one hour and was stable for 24 hours. A similar osmotically balanced control solution was prepared from methyl cellulose powder dissolved in distilled water using low heat for several hours. The solution was refrigerated over night to yield a transparent, viscous fluid. The pH of the solution was determined by mixing one part of the control or experimental solution with five parts of distilled water. The pH ranged between 6.2 and 6.5 for both the control and experimental solutions. The 3% methylcellulose solution was refrigerated when not in use.

intraocular pressure [3] = experiment: Topical instillation, intraocular pressure in rabbits; type: in vivo, Dutch-belted rabbits
Description: as §5, §6, §7, §8, §9

[4] = tested on: aqueous humor outflow (trabecular meshwork); experiment: Two-step constant pressure perfusion of anterior chamber; aqueous humor outflow facility in cynomolgus monkeys in vivo; set-up: species or system cynomologous monkeys
Description: as §1, §2, §3
The control solution was composed of 9.5 mg sodium chloride (to osmotically balance the experimental solution), 62.5 mg mannitol and 0.1 milliliter thimerosol dissolved in Dulbecco's phosphate buffered saline with 5.5 mM added glucose to yield the desired concentration.
as §4
[…] There were at least three animals and separate experiments carried out for each of the concentrations 0.1 MM, 0.25 mM, and 0.5 mM.

cornea = experiment: Topical application, corneal edema in the monkey (flashlight and slit lamp examination); type: in vivo
Description: as §8
(§10) In the monkey, a significant pressure reduction 24 hours after application of 10 mM ester A was observed (control eyes changing from 17±3 to 21±2 mm Hg versus experimental eyes changing from 19±1 to 5±3 mm Hg; n=6). […] This was detected by flashlight examination and confirmed by slit lamp examination.

intraocular pressure [5] = experiment: Topical application, intraocular pressure in the monkey; type: in vivo
Description: as §8
After topical application of 10 mM ester A, a reduction in intraocular pressure in the rabbit was observed. This was most apparent 24 hours after instillation ([…] intraocular pressure changing from 22±3 to 15±2 mm Hg; n=8). In all these topical experiments 2 drops of the agent were given 5 minutes apart and control eyes were fully sham manipulated. […] However, not all the animals were slit lamped.
as §10

Water solubility = type: physicochemical
[6] = tested on: calf eye outflow facility; details: perfusion at 15 mm Hg and 22° C.; cited from earlier work
monkey eye outflow = details: perfusion at 15 mm Hg and 22° C.; cited from earlier work

In the case of `C=C(CC)C(=O)c1ccc(OCC(=O)O)c(Cl)c1Cl` [ethacrynic acid, [2,3-dichloro-4-(2-methylene-1-oxobutyl)phenoxy] acetic acid], the “intraocular pressure after perfusion” value (eye [1]; a few days after the perfusion experiments) is reported as “symmetrical and normal in both eyes”, the dilated pupil (eye [1]; dosages above 0.25 mM, treated eye) is reported as “some of the animals developed a dilated pupil” and the “chronic corneal edema, opacities or cataract formation” value (eye [1]; perfusion) is reported as “no chronic corneal edema or opacities or cataract formation”. The “corneal or crystalline lens changes” value (eye [1]; perfusion) was “no apparent corneal or crystalline lens changes”, the conjunctival side effect (eye [2]; 5 mM topical) was “slight conjunctival infection” and the other side effects (eye [2]; 5 mM topical) was “no other side effects noted”. For the same compound, the “conjunctival side effect and irritation” value (eye [2]; 10 mM topical) was “moderate conjunctival infection and signs of irritation”, the “resolution of corneal toxicity and inflammation” value (eye [2]; higher concentrations (above 10 mM)) was “resolved without apparent sequelae” and the “corneal toxicity and anterior chamber inflammation” value (eye [2]; higher concentrations (above 10 mM), for several days) was “signs of corneal toxicity (corneal edema) and anterior chamber inflammation were apparent for several days”. The stability of solution (Solution stability) was 24 h, the “intraocular pressure, treated eye” value (intraocular pressure [3]; 5 mM in 3% methylcellulose, 2 hours, from 22.4 baseline, control eye 21.5 to 23.1, n=8, p less than 0.01) was 19.6 mm Hg and the “intraocular pressure, treated eye” value (intraocular pressure [3]; 5 mM in 3% methylcellulose, next day, control eye 22.7) was 22.4 mm. The “intraocular pressure, treated eye” value (intraocular pressure [3]; 10 mM and 3% methylcellulose, 24 hours, from 23.0 baseline, control eye 22.9 to 24.2, n=14, p less than 0.001) was 20.0 mm Hg, the “response in outflow facility” value ([4]; 0.25 mM) was “approximately half the animals perfused responded with a substantial increase in outflow facility” and the “mean increase in fluid outflow facility” value ([4]; 0.5 mM final concentration in anterior chamber, control perfused eye no change) was 140%. The “increase in outflow facility” value ([4]; 1.0 mM, one animal, 18% increase in control eye) was 355% and the “effect on outflow facility” value ([4]; lower dosages (below 0.25 mM)) was “no effect”.

With `C=C(CC)C(=O)c1ccc(OCC(=O)OCCN(CC)CC)c(Cl)c1Cl` [ester A, RCOOCH2 CH2 N(CH2 CH3)2] the corneal edema (cornea; 5 mM ester A) was “corneal edema was likewise apparent”, the corneal edema (cornea; 10 mM ester A) was “significant corneal edema was also observed in over half of the monkeys” and the “resolution of corneal edema” value (cornea; ester A topical, all animals) was “corneal edema ultimately resolved in all animals”. For the same compound, the irritation (eye [2]; 5 mM ester A, two rabbits) was “minimal if any irritation”, the anterior chamber inflammation (eye [2]; 10 mM ester A) was “No anterior chamber inflammation was observed” and the “clearing of external irritation of the lid” value (eye [2]; 10 mM ester A) was 24 h. For the same compound, the “irritation of eyelid, conjunctiva, nictitating membrane” value (eye [2]; 10 mM ester A) was “Most of the animals demonstrated some irritation of the eyelid and a few to the conjunctiva and nictitating membrane”, the corneal changes (eye [2]; 10 mM ester A, not all animals slit lamped) was “no corneal changes were observed” and the intraocular pressure (intraocular pressure [3]; 10 mM ester A, 24 hours after instillation, from 22±3, n=8, printed as control eye) was 15±2 mm Hg. For the same compound, the pressure reduction (intraocular pressure [5]; 5 mM ester A) was “no pressure reduction was documented” and the “intraocular pressure, experimental eyes” value (intraocular pressure [5]; 10 mM ester A, 24 hours, from 19±1, control eyes 17±3 to 21±2, n=6) was 5±3 mm Hg.

For `C=C(CC)C(=O)c1ccc(OCC(=O)OCCCN(CC)CC)c(Cl)c1Cl` [ester B, RCOOCH2 CH2 CH2 N(CH2 CH3)2], the signs of irritation (eye [2]; 10 mM ester B, at 24 hours) was “only minimal if any signs of irritation”, the “slit lamp observation of ocular inflammation” value (eye [2]; 10 mM ester B, at 24 hours) was “no slit lamp observations of ocular inflammation” and the “intraocular pressure, experimental eyes” value (intraocular pressure [3]; 10 mM ester B, 24 hours, from 23±3, control eyes 24±2 to 24±2, n=5) was 15±3 mm Hg.

`C=C(CC)C(=O)c1ccc(OCC(=O)O)c(Cl)c1Cl` [sodium salt of ethacrynic acid] gave a solubility (Water solubility) of ~40 mM and a stability of solution (Solution stability; Dulbecco's phosphate buffered saline with 5.5 mM glucose, pH 7.2) of 24 h.

In the case of `CCN1C(=O)C=CC1=O` [NEM, N-ethylmaleimide], the “dosage producing a significant increase in the facility of outflow” value [6] is given as ≥ 4.7 mM and the “outflow in the monkey eye” value (monkey eye outflow) is given as “increase in outflow”.
